Like-named read-outs stand apart in the source and are kept apart here.
Legend:
Type in all cases: cell-based
[1] = tested on: N1E115 (mouse brain neuroblastoma cell line); assay: Cell proliferation (ATPLite) on N1E115 line; conditions: read 72 hours after addition
Experimental: (§1) The lines N1E115 (ATCC, CRL2263), MDA-MB-231 (ATCC, HTB26) and HSC-1 (Health Science Research Resources Bank, JCRB1015) were cultured in DMEM medium (Dulbecco's Modified Eagle Medium) supplemented with 2 mM of L-Glutamine (Sigma, G7513) and 10% foetal calf serum (Hyclone, SH30109.03) or 20% for the HSC-1 cells. The HCC-1937 (ATCC, CRL2336) and A549 (ATCC, CCL185) lines were cultured in RPMI medium (Roswell Park Memorial Institute Medium) supplemented with 10% foetal calf serum and 2 mM of L-Glutamine. Finally, the SCC114 (DSMZ, ACC662) line was cultured in MEM medium (Minimum Essential Medium Eagle) supplemented with 10% foetal calf serum and 2 mM of L-Glutamine. Initially, in 96-well plates (Perkin Elmer, 6005668), the cells were seeded in their respective culture media with 750 cells per well for N1E115; 1000 cells per well for SCC114 and A549; 2000 cells per well for HCC-1937 and HSC-1; 2500 cells per well for MDA-MB-231. Cascade dilution of each compound was performed in dimethylsulfoxide (DMSO) (Sigma, D8418) from 10 mM stock solutions in 100% DMSO. Each of the dilutions was added to the cells 24 hours after seeding. Under these conditions the final solvent concentration was 0.1% DMSO. Reading of cell proliferation was conducted 72 hours after addition of products with the ATPLite kit (Perkin Elmer, 6016947) and following the manufacturer's directions except in the case of the HCC-1937 line for which this reading was carried out 48 hours after treatment. Analysis of proliferation results was performed by comparing with conditions in which solely the vehicle was added to the cells. The dose-response curves obtained were analysed using Prism 4.03 software (GraphPad Software Inc.) to determine the concentration of each compound allowing 50% inhibition of cell proliferation (IC50).
(§2) As examples, the cytotoxic properties of some compounds of the invention evaluated on the lines A549 (lung cancer cell line), MDA-MB-231 line (mammary adenocarcinoma cell line), N1E115 (mouse brain neuroblastoma cell line), HCC-1937 line (primary ductam breast carcinoma cell line), HSC-1 (cutaneous squamous carcinoma cell line) and SCC114 line (oral squamous carcinoma cell line) are reported in Table 1, as compared with griseofulvin used as control product. The concentration values are expressed in micromolar units (μM).

[2] = tested on: MDA-MB-231 line (mammary adenocarcinoma cell line); assay: Cell proliferation (ATPLite) on MDA-MB-231 line; conditions: read 72 hours after addition
Experimental: as §1, §2

[3] = tested on: SCC114 line (oral squamous carcinoma cell line); assay: Cell proliferation (ATPLite) on SCC114 line; conditions: read 72 hours after addition
Experimental: as §1, §2

[4] = tested on: HCC-1937 line (primary ductam breast carcinoma cell line); assay: Cell proliferation (ATPLite) on HCC-1937 line; conditions: read 48 hours after treatment
Experimental: as §1, §2

[5] = tested on: HSC-1 (cutaneous squamous carcinoma cell line); assay: Cell proliferation (ATPLite) on HSC-1 line; conditions: 50% inhibition of cell proliferation, read 72 hours after addition
Experimental: as §1, §2

[6] = tested on: A549 (lung cancer cell line); assay: Cell proliferation (ATPLite) on A549 line; conditions: read 72 hours after addition
Experimental: as §1, §2

[7] = 50% inhibition of cell proliferation, read-out: IC50 (μM) N1E-115
[8] = 50% inhibition of cell proliferation
[9] = 50% inhibition of cell proliferation, read-out: IC50 (μM) HCC1937
[10] = Mus musculus, N1E-115, 50% inhibition of cell proliferation
[11] = Homo sapiens, MDA-MB-231, 50% inhibition of cell proliferation
[12] = SCC114, 50% inhibition of cell proliferation
[13] = Homo sapiens, HCC1937, 50% inhibition of cell proliferation
[14] = Homo sapiens, A549, 50% inhibition of cell proliferation

IC50 [1, 7] [µM] | IC50 [2, 8] [µM] | IC50 [3, 8] [µM] | IC50 [4, 9] [µM] | IC50 [5] [µM] | IC50 [6, 8] [µM] | IC50 [1, 10] [µM] | IC50 [2, 11] [µM] | IC50 [3, 12] [µM] | IC50 [4, 13] [µM] | IC50 [6, 14] [µM] | Structure (SMILES)
0.21 | 0.45 | 0.52 | > 10 | 6 | 0.25 |  |  |  |  |  | COc1cc(OC)c2c(c1Cl)O[C@]1(C2=O)C2=C(C[C@H](c3ccccc3)O2)C(=O)C[C@H]1C [compound 3, (2R,2′S,6R)-7′-chloro-4′,6′-dimethoxy-6-methyl-2-phenyl-5,6-dihydro-2H,3′H-2,7′-spirobi[benzofuran]-3′,4(3H)-dione]
1 | 0.54 | 0.25 | 0.43 | 0.32 | 0.25 |  |  |  |  |  | COc1cc(OC)c2c(c1Cl)O[C@@]1(C=C([S+]([O-])c3ccccc3)C(=O)C[C@H]1C)C2=O (stereo partly drawn) [compound 95]
3 | 2 | 0.385 | 1.4 | 1.4 | 1.5 |  |  |  |  |  | COc1cc(OC)c2c(c1Cl)O[C@]1(C2=O)C(S(=O)(=O)Cc2ccccc2)=CC(=O)C[C@H]1C [compound 145, (1′R,6′R)-2′-(benzylsulfonyl)-7-chloro-4,6-dimethoxy-6′-methyl-3H-spiro[benzofuran-2,1′-cyclohex[2]ene]-3,4′-dione]
 |  |  |  | 0.72 |  | 0.21 | 0.34 | 0.23 | > 10 | 0.24 | COC(=O)C1=C[C@H](c2ccccc2)C2=C(C[C@@H](C)[C@]3(Oc4c(Cl)c(OC)cc(OC)c4C3=O)C2=O)N1 [compound 149, (2S,4′R,7′R)-methyl 7-chloro-4,6-dimethoxy-7′-methyl-3,5′-dioxo-4′-phenyl-4′,5′,7′,8′-tetrahydro-1′H,3H-spiro[benzofuran-2,6′-quinoline]-2′-carboxylate]
 |  |  |  | 10 |  | 0.62 | 1.6 | 0.71 | > 10 | 0.48 | COC(=O)c1cc(-c2ccccc2)c2c(n1)C[C@@H](C)[C@]1(Oc3c(Cl)c(OC)cc(OC)c3C1=O)C2=O [compound 152, (2S,7′R)-methyl 7-chloro-4,6-dimethoxy-7′-methyl-3,5′-dioxo-4′-phenyl-7′,8′-dihydro-3H,5′H-spiro[benzofuran-2,6′-quinoline]-2′-carboxylate]
0.73 | 0.63 | 0.33 | > 10 | 1.3 | 0.36 |  |  |  |  |  | COc1cc(OC)c2c(c1Cl)O[C@]1(C2=O)C2=C(C[C@@H](c3ccccc3)O2)/C(=N/O)C[C@H]1C [compound 217, (2′S,6R,E)-7′-chloro-4-(hydroxyimino)-4′,6′-dimethoxy-6-methyl-2-phenyl-3,4,5,6-tetrahydro-2H,3′H-2,7′-spirobi[benzofuran]-3′-one]
 |  |  |  | 0.88 |  | 0.26 | 0.34 | 0.42 | > 10 | 0.55 | COc1cc(OC)c2c(c1Cl)O[C@]1(C2=O)C(O)c2ccc(C)nc2C[C@H]1C (stereo partly drawn) [compound 249, (2S,7′R)-7-chloro-5′-hydroxy-4,6-dimethoxy-2′,7′-dimethyl-7′,8′-dihydro-3H,5′H-spiro[benzofuran-2,6′-quinolin]-3-one]
 |  |  |  | 1.9 |  | 1.4 | 0.35 | 0.54 | > 10 | 1.4 | CCc1ccc2c(n1)C[C@@H](C)[C@]1(Oc3c(Cl)c(OC)cc(OC)c3C1=O)C2O (stereo partly drawn) [compound 250, (2 S,7′R)-7-chloro-2′-ethyl-5′-hydroxy-4,6-dimethoxy-7′-methyl-7′,8′-dihydro-3H,5′H-spiro[benzofuran-2,6′-quinolin]-3-one]
 |  |  |  | 0.52 |  | 0.2 | 0.38 | 0.32 | > 10 | 0.25 | COC(=O)c1cc(-c2ccccc2)c2c(n1)C[C@@H](C)[C@]1(Oc3c(Cl)c(OC)cc(OC)c3C1=O)[C@H]2O [compound 252, (2S,5′S,7′R)-methyl 7-chloro-5′-hydroxy-4,6-dimethoxy-7′-methyl-3-oxo-4′-phenyl-7′,8′-dihydro-3H,5′H-spiro[benzofuran-2,6′-quinoline]-2′-carboxylate]
